Laboratory results published in US20200306210A1 (ZOGENIX INTERNATIONAL LIMITED, priority 2017, published 2020).
“And” between values parts separate entries of the source, which are not always exact repeats. Equal values may be shown once. Where a name gives a salt, the structure may show the parent alone.

Tests used:
[1] = tested on: children and young adults with Dravet syndrome; experiment: Study 1: quality of life (PedsQL, QOLCE); format: in vivo, Human; conditions: increase indicates improvement
Description: In Study 1, subjects were assessed using Clinical Global Impression (CGI), allowing the parent/caregiver and principal investigator to assess improvement, as well as the Quality of Life in Childhood Epilepsy (QOLCE) Scale and the Pediatric Quality of Life Inventory (PedsQL) to measure changes in the quality of life of the subject. Comparisons between treatment groups were made using Wilcoxon rank sum tests.
In 2003, Varni and colleagues published a study intended to determine the feasibility, reliability, and validity of the 23-item PEDSQL 4.0 (Pediatric Quality of Life Inventory) Generic Core Scales as a measure of pediatric population health for children and adolescents. The instrument was given to over 10,000 families with children age 2-16 in the state of California. From Varni, et al., parent reported changes in each of the scales and summary scores that could be considered clinically meaningful include a change of >1 SEM or Standard Error of Measurement as a cut point.

[2] = tested on: children and young adults with Dravet syndrome; experiment: Study 1: safety (TEAEs, body weight, echocardiography); format: in vivo, Human
Description: The incidence of treatment-emergent adverse events (TEAEs) was monitored continuously during the study. TEAEs were graded by the investigator as mild, moderate, or severe, and related or not related to study medication. Vital signs, height, weight, and clinical laboratory evaluations were performed at each study visit. The Behavior Rating Inventory of Executive Function (BRIEF) was administered at baseline and periodically during the treatment period to assess for any effects of treatment on cognitive function. Doppler echocardiography (ECHOs) and 12-lead electrocardiography (ECGs) were performed during the screening/baseline period, after 6 weeks of treatment, and after 14 weeks of treatment at the end of the maintenance period. The ECGs and ECHOs were evaluated by two independent cardiologists who were blind to treatment randomization. In the event of disagreement, a third cardiologist arbitrated the decision.
All subjects received ZX008 or matching placebo for up to approximately 16 weeks (Titration Period=2 weeks; Maintenance Period=12 weeks; Taper/Transition Period=2 weeks) in Study 1. After completion of the Maintenance Period, eligible subjects could enroll in an open-label extension (OLE) study, after completion of the transition. […] Follow-up cardiovascular safety assessments, including ECG and ECHO, were performed 3 to 6 months following the last dose of study medication.
In the ZX008 0.2 mg/kg/day group, 5 (12.8%) subjects had weight losses ranging from 8.4% to 21.9% of body weight; the one subject with a 21.9% loss was under the guidance of a nutritionist to manage their weight during the trial, and another subject with a 15.3% loss had been diagnosed with diabetes mellitus shortly before enrolling in the study and was also being managed to lose weight. One subject in the 0.2 mg/kg/day group gained 10.3% body weight during the study. In the ZX008 0.8 mg/kg/day group, 8 (20.0%) subjects lost weight, ranging from 7.2% to 11.4% of baseline body weight. One subject in the ZX008 0.8 mg/kg/day group discontinued citing decreased appetite and weight loss, among other events. The weight loss, however, amounted to less than 1 kg. There were no deaths in the study.

**Q.** `CCNC(C)Cc1cccc(C(F)(F)F)c1` (stereo not shown) [ZX008, fenfluramine hydrochloride] was tested. Which “Pediatric Quality of Life Inventory (Peds QL) Total Score, change from baseline, mean ± SD” value ([1]; 0.2 mg/kg/day) did it give?
**A.** 6.8 ± 11.3

**Q.** And the “Pediatric Quality of Life Inventory (Peds QL) Total Score, change from baseline, mean ± SD” value ([1]; 0.8 mg/kg/day)?
**A.** 5.9 ± 15.1

**Q.** And the “Deaths in the study” value [2]?
**A.** no deaths

**Q.** And the Tolerability [2]?
**A.** generally well tolerated

**Q.** And the “At least one echocardiographic finding with trace mitral and/or trace aortic regurgitation, % of subjects” value ([2]; 0.2 mg/kg/day)?
**A.** 17.9%

**Q.** And the “At least one echocardiographic finding with trace mitral and/or trace aortic regurgitation, number of subjects” value ([2]; 0.2 mg/kg/day)?
**A.** 7

**Q.** And the “Body weight gained during the study, one subject” value ([2]; 0.2 mg/kg/day)?
**A.** 10.3%

**Q.** And the “Serious adverse events, % of subjects” value ([2]; 0.2 mg/kg/day)?
**A.** 10.3%

**Q.** And the “Serious adverse events, number of subjects” value ([2]; 0.2 mg/kg/day)?
**A.** 4

**Q.** What about the “Status epilepticus (serious adverse event), % of subjects” value ([2]; 0.2 mg/kg/day) of the same molecule?
**A.** 2.6%

**Q.** And the “Status epilepticus (serious adverse event), number of subjects” value ([2]; 0.2 mg/kg/day)?
**A.** 1

**Q.** What about the “Subjects with weight loss (change from baseline ≥7%), number” value ([2]; 0.2 mg/kg/day) of the same molecule?
**A.** 5

**Q.** What about the “TEAEs mild to moderate in severity, % of patients among those with TEAEs” value ([2]; 0.2 mg/kg/day) of the same molecule?
**A.** 94.6%

**Q.** What about the “TEAEs mild to moderate in severity, number of patients among those with TEAEs” value ([2]; 0.2 mg/kg/day) of the same molecule?
**A.** 35

**Q.** And the “Subjects with weight loss (change from baseline ≥7%), %” value ([2]; 0.2 mg/kg/day, hydrochloride)?
**A.** 12.8% and 13%

**Q.** What about the “At least one echocardiographic finding with trace mitral and/or trace aortic regurgitation, % of subjects” value ([2]; 0.8 mg/kg/day) of the same molecule?
**A.** 22.5%

**Q.** And the “At least one echocardiographic finding with trace mitral and/or trace aortic regurgitation, number of subjects” value ([2]; 0.8 mg/kg/day)?
**A.** 9

**Q.** What about the “Serious adverse events, % of subjects” value ([2]; 0.8 mg/kg/day) of the same molecule?
**A.** 12.5%

**Q.** What about the “Serious adverse events, number of subjects” value ([2]; 0.8 mg/kg/day) of the same molecule?
**A.** 5

**Q.** What about the “Status epilepticus (serious adverse event), % of subjects” value ([2]; 0.8 mg/kg/day) of the same molecule?
**A.** 5%

**Q.** And the “Status epilepticus (serious adverse event), number of subjects” value ([2]; 0.8 mg/kg/day)?
**A.** 2

**Q.** And the “Subjects with weight loss (change from baseline ≥7%), number” value ([2]; 0.8 mg/kg/day)?
**A.** 8

**Q.** What about the “TEAEs mild to moderate in severity, % of patients among those with TEAEs” value ([2]; 0.8 mg/kg/day) of the same molecule?
**A.** 92.1%

**Q.** What about the “TEAEs mild to moderate in severity, number of patients among those with TEAEs” value ([2]; 0.8 mg/kg/day) of the same molecule?
**A.** 35

**Q.** What about the “Subjects with weight loss (change from baseline ≥7%), %” value ([2]; 0.8 mg/kg/day, hydrochloride) of the same molecule?
**A.** 20%

**Q.** And the “Most common non-cardiovascular adverse events” value ([2]; ZX008-treated patients)?
**A.** decreased appetite, diarrhea, nasopharyngitis, lethargy, somnolence, and pyrexia

**Q.** And the “TEAEs reported, % of subjects” value ([2]; each ZX008 dose group (0.2 and 0.8 mg/kg/day))?
**A.** 95%

**Q.** And the “Cases of cardiac valvulopathy or pulmonary hypertension” value ([2]; ≤30 mg/day, 14-week treatment and 2-week transition, hydrochloride)?
**A.** no cases
